EC50 data for six compounds are collected here from US20250115669A1, “FGFR1/KLB Targeting Agonistic Antigen-Binding Proteins and Conjugates Thereof with GLP-1R Agonistic Peptides” (SANOFI, priority 2020, published 2025).

Read-outs that look alike come from different tables or passages of the source. Peptide text beside a SMILES is read from it.

Common to all, as to type: cell-based
One experiment has as its target T1, human GIP receptor (Homo sapiens, UniProt P48546).
T1 construct: expressed in transfected cells; host or cells: PSC-HEK-293
T1 sequence (P48546 22-466): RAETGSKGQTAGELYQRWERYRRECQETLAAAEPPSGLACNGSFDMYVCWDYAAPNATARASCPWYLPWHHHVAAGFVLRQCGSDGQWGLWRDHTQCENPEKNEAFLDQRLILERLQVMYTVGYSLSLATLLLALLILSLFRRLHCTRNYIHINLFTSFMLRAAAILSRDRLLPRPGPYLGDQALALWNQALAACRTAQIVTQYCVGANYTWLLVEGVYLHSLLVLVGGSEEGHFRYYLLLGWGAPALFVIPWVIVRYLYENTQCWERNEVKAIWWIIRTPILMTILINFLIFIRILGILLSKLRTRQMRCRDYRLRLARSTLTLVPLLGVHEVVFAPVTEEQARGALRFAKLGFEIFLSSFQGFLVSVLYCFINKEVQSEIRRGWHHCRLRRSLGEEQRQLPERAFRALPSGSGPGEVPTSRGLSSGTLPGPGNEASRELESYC
The experiment is described as follows: HTRF cAMP assay in HEK-293 cells expressing human GIP receptor.

Experiment [1] concerns the target T2, human glucagon (GCG) receptor (Homo sapiens, UniProt P47871).
T2 construct: expressed in transfected cells; host or cells: PSC-HEK-293
The experiment is described as follows: HTRF cAMP assay in HEK-293 cells expressing human glucagon receptor.

For the next experiment, the target named is T3, human GLP-1 receptor (Homo sapiens, UniProt P43220).
T3 construct: expressed in transfected cells; host or cells: PSC-HEK-293
T3 sequence (P43220 24-463): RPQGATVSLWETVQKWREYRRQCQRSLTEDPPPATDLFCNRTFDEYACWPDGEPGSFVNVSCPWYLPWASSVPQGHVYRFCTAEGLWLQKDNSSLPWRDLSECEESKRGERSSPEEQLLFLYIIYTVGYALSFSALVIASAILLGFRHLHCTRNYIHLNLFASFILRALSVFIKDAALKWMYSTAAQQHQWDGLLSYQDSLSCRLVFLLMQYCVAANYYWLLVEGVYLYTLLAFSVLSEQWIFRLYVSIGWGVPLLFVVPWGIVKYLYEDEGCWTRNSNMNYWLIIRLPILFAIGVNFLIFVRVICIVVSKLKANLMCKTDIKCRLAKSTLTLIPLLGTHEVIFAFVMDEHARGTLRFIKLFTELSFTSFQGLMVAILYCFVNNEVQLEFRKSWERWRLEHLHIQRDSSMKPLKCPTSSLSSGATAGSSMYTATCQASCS
The experiment is described as follows: HTRF cAMP assay in HEK-293 cells expressing human GLP-1 receptor. The procedure:
Each vial contained 1.8 ml cells. The vials were slowly frozen to −80° C. in isopropanol, and then transferred in liquid nitrogen for storage.
Cells were resuspended in assay buffer (cell buffer plus 2 mM IBMX) and adjusted to a cell density of 1 million cells/ml.
For measurement of cAMP generation, 5 μl cells (final 5000 cells/well) and 5 μl of test compound were added to a 384-well plate, followed by incubation for 30 min at room temperature.
The cAMP generated was determined using a kit from Cisbio Corp. based on HTRF (Homogenous Time Resolved Fluorescence). The cAMP assay was performed according to manufacturer's instructions (Cisbio).

Setting [2] is: HEK-293 cells, read-out: HTRF cAMP EC50 Human GIPR.
The mark [3] stands for this setting: HEK-293 cells, read-out: HTRF cAMP EC50 Human GCGR.
Where [4] appears, read: HEK-293 cells, read-out: HTRF cAMP EC50 Human GLP-1R.

T2 sequence (P47871 26-477): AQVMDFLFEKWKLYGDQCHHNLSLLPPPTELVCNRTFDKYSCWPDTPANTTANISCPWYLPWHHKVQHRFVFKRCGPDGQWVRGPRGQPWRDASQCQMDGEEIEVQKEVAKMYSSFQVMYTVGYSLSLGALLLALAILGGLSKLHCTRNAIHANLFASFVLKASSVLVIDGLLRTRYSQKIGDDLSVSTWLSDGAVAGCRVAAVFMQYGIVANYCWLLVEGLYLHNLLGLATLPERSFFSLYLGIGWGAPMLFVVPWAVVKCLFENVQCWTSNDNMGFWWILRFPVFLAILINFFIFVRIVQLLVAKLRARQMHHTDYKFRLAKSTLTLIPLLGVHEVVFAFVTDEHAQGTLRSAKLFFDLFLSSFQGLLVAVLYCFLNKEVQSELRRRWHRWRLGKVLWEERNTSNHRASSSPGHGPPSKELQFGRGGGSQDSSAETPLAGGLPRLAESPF

`CC[C@H](C)[C@H](NC(=O)[C@H](Cc1ccccc1)NC(=O)[C@H](CC(C)C)NC(=O)[C@H](CCCNC(=N)N)NC(=O)[C@H](CCC(N)=O)NC(=O)[C@H](C)NC(=O)[C@H](CCC(=O)O)NC(=O)[C@H](CCC(=O)O)NC(=O)[C@H](CCC(=O)O)NC(=O)[C@H](CC(C)C)NC(=O)[C@H](CCC(N)=O)NC(=O)[C@H](CCCCN)NC(=O)[C@H](CO)NC(=O)[C@H](CC(C)C)NC(=O)[C@H](CC(=O)O)NC(=O)[C@H](CO)NC(=O)[C@@H](NC(=O)[C@H](Cc1ccccc1)NC(=O)[C@@H](NC(=O)CNC(=O)[C@H](CCC(=O)O)NC(=O)CNC(=O)[C@H](Cc1c[nH]cn1)NC(=O)CN)[C@@H](C)O)[C@@H](C)O)C(=O)N[C@@H](CCC(=O)O)C(=O)N[C@@H](Cc1c[nH]c2ccccc12)C(=O)N[C@@H](CC(C)C)C(=O)N[C@@H](CCCCN)C(=O)N[C@@H](C)C(=O)NCC(=O)NCC(=O)N1CCC[C@H]1C(=O)N[C@@H](CO)C(=O)N[C@@H](CO)C(=O)NCC(=O)N[C@@H](CCCCN)C(=O)N1CCC[C@H]1C(=O)N1CCC[C@H]1C(=O)N1CCC[C@H]1C(=O)N[C@@H](CCCCN)C(N)=O` [Ab P036] (H-GHGEGTFTSDLSKQLEEEAQRLFIEWLKAGGPSSGKPPPK-NH2; N-terminus assumed): the results for the EC50 (on human GIP receptor (setting [2]); in experiment [1] (setting [3]); at human GLP-1 receptor (setting [4])) were over 10 nM, over 10 nM and 0.125 nM, respectively.

In the case of `CC[C@H](C)[C@H](NC(=O)[C@H](Cc1ccccc1)NC(=O)[C@H](CC(C)C)NC(=O)[C@H](CCCNC(=N)N)NC(=O)[C@H](CCC(N)=O)NC(=O)[C@H](CC(C)C)NC(=O)[C@H](CCCNC(=N)N)NC(=O)[C@H](CCCCN)NC(=O)[C@H](CCC(=O)O)NC(=O)[C@H](CC(C)C)NC(=O)[C@H](CCC(N)=O)NC(=O)[C@H](CCCCN)NC(=O)[C@H](CO)NC(=O)[C@H](CC(C)C)NC(=O)[C@H](CC(=O)O)NC(=O)[C@H](CO)NC(=O)[C@@H](NC(=O)[C@H](Cc1ccccc1)NC(=O)[C@@H](NC(=O)CNC(=O)[C@H](CCC(=O)O)NC(=O)CNC(=O)[C@@H](N)Cc1c[nH]cn1)[C@@H](C)O)[C@@H](C)O)C(=O)N[C@@H](Cc1ccc(O)cc1)C(=O)N[C@@H](Cc1c[nH]c2ccccc12)C(=O)N[C@@H](CC(C)C)C(=O)N[C@@H](CCCCN)C(=O)N[C@@H](C)C(=O)NCC(=O)NCC(=O)N[C@@H](Cc1c[nH]cn1)C(=O)N[C@@H](CO)C(=O)N[C@@H](CO)C(=O)NCC(=O)N[C@@H](CCCCN)C(=O)N1CCC[C@H]1C(=O)N1CCC[C@H]1C(=O)N1CCC[C@H]1C(=O)N[C@@H](CCCCN)C(N)=O` [Ab P026] (H-HGEGTFTSDLSKQLEKRLQRLFIYWLKAGGHSSGKPPPK-NH2; N-terminus assumed), the figures for the EC50 (at human GIP receptor (setting [2]); in experiment [1] (setting [3]); at human GLP-1 receptor (setting [4])) were 2.48 nM, 3.9 nM and 0.002 nM, respectively.

`CC[C@H](C)[C@H](NC(=O)[C@H](Cc1ccccc1)NC(=O)[C@H](CC(C)C)NC(=O)[C@H](CCCNC(=N)N)NC(=O)[C@@H](NC(=O)[C@H](C)NC(=O)[C@H](CCC(=O)O)NC(=O)[C@H](CCC(=O)O)NC(=O)[C@H](CCC(=O)O)NC(=O)[C@H](CC(C)C)NC(=O)[C@H](CCC(N)=O)NC(=O)[C@H](CCCCN)NC(=O)[C@H](CO)NC(=O)[C@H](CCCCN)NC(=O)[C@H](CC(=O)O)NC(=O)[C@H](CO)NC(=O)[C@@H](NC(=O)[C@H](Cc1ccccc1)NC(=O)[C@@H](NC(=O)CNC(=O)[C@H](CCC(=O)O)NC(=O)CNC(=O)[C@H](Cc1c[nH]cn1)NC(=O)CN)[C@@H](C)O)[C@@H](C)O)C(C)C)C(=O)N[C@@H](CCC(=O)O)C(=O)N[C@@H](Cc1c[nH]c2ccccc12)C(=O)N[C@@H](CC(C)C)C(=O)N[C@@H](CCCCN)C(=O)N[C@@H](C)C(=O)NCC(=O)NCC(=O)N1CCC[C@H]1C(=O)N[C@@H](CCCCN)C(=O)N[C@@H](CCCCN)C(=O)N[C@H](C(=O)N[C@@H](CCCNC(=N)N)C(=O)N[C@@H](Cc1ccc(O)cc1)C(=O)N[C@@H](CO)C(N)=O)[C@@H](C)CC` [Ab P014] (H-GHGEGTFTSDKSKQLEEEAVRLFIEWLKAGGPKKIRYS-NH2; N-terminus assumed): the EC50 was over 10 nM at human GIP receptor (setting [2]), 5.4 nM in experiment [1] (setting [3]) and 0.0105 nM at human GLP-1 receptor (setting [4]).

As for `CC[C@H](C)[C@H](NC(=O)[C@H](Cc1ccccc1)NC(=O)[C@H](CC(C)C)NC(=O)[C@H](CCCNC(=N)N)NC(=O)[C@@H](NC(=O)[C@H](C)NC(=O)[C@H](CCC(=O)O)NC(=O)[C@H](CCC(=O)O)NC(=O)[C@H](CCC(=O)O)NC(=O)[C@H](CC(C)C)NC(=O)[C@H](CCC(N)=O)NC(=O)[C@H](CCCCN)NC(=O)[C@H](CO)NC(=O)[C@H](CC(C)C)NC(=O)[C@H](CC(=O)O)NC(=O)[C@H](CO)NC(=O)[C@@H](NC(=O)[C@H](Cc1ccccc1)NC(=O)[C@@H](NC(=O)CNC(=O)[C@H](CCC(=O)O)NC(=O)CNC(=O)[C@H](Cc1c[nH]cn1)NC(=O)CN)[C@@H](C)O)[C@@H](C)O)C(C)C)C(=O)N[C@@H](CCC(=O)O)C(=O)N[C@@H](Cc1c[nH]c2ccccc12)C(=O)N[C@@H](CC(C)C)C(=O)N[C@@H](CCCCN)C(=O)N[C@@H](C)C(=O)NCC(=O)NCC(=O)N1CCC[C@H]1C(=O)N[C@@H](CCCCN)C(=O)N[C@@H](CCCCN)C(=O)N[C@H](C(=O)N[C@@H](CCCNC(=N)N)C(=O)N[C@@H](Cc1ccc(O)cc1)C(=O)N[C@@H](CO)C(N)=O)[C@@H](C)CC` [Ab P013] (H-GHGEGTFTSDLSKQLEEEAVRLFIEWLKAGGPKKIRYS-NH2), the EC50 was over 10 nM on human GIP receptor, over 10 nM in experiment [1] and 0.0099 nM on human GLP-1 receptor.

Consider `CC[C@H](C)[C@H](NC(=O)[C@H](CC(C)C)NC(=O)[C@H](Cc1c[nH]c2ccccc12)NC(=O)[C@H](CC(C)C)NC(=O)[C@@H](NC(=O)[C@H](Cc1ccccc1)NC(=O)[C@H](CC(C)C)NC(=O)[C@H](CCCNC(=N)N)NC(=O)[C@@H](NC(=O)[C@H](CC(C)C)NC(=O)[C@H](CCCNC(=N)N)NC(=O)[C@H](CCCCN)NC(=O)[C@H](CCC(=O)O)NC(=O)[C@H](CC(C)C)NC(=O)[C@H](CCC(N)=O)NC(=O)[C@H](CCCCN)NC(=O)[C@H](CO)NC(=O)[C@H](CCCCN)NC(=O)[C@H](CC(=O)O)NC(=O)[C@H](CO)NC(=O)[C@@H](NC(=O)[C@H](Cc1ccccc1)NC(=O)[C@@H](NC(=O)CNC(=O)[C@H](CCC(=O)O)NC(=O)CNC(=O)[C@@H](N)Cc1c[nH]cn1)[C@@H](C)O)[C@@H](C)O)C(C)C)[C@@H](C)CC)C(=O)N[C@@H](C)C(=O)NCC(=O)NCC(=O)N[C@@H](Cc1c[nH]cn1)C(=O)N[C@@H](CO)C(=O)N[C@@H](CO)C(=O)NCC(=O)N[C@@H](CCCCN)C(=O)N1CCC[C@H]1C(=O)N1CCC[C@H]1C(=O)N1CCC[C@H]1C(=O)N[C@@H](CCCCN)C(N)=O` [Ab P023] (H-HGEGTFTSDKSKQLEKRLVRLFILWLIAGGHSSGKPPPK-NH2; N-terminus assumed), for which the concentration giving a half-maximal response (EC50) at human GIP receptor (setting [2]) was over 10 nM; in experiment [1] (setting [3]), over 10 nM; on human GLP-1 receptor (setting [4]), 0.0017 nM.

On to `CC[C@H](C)[C@H](NC(=O)[C@H](Cc1ccccc1)NC(=O)[C@H](CC(C)C)NC(=O)[C@H](CCCNC(=N)N)NC(=O)[C@@H](NC(=O)[C@H](C)NC(=O)[C@H](CCC(=O)O)NC(=O)[C@H](CCC(=O)O)NC(=O)[C@H](CCC(=O)O)NC(=O)[C@H](CC(C)C)NC(=O)[C@H](CCC(N)=O)NC(=O)[C@H](CCCCN)NC(=O)[C@H](CO)NC(=O)[C@H](CC(C)C)NC(=O)[C@H](CC(=O)O)NC(=O)[C@H](CO)NC(=O)[C@@H](NC(=O)[C@H](Cc1ccccc1)NC(=O)[C@@H](NC(=O)CNC(=O)[C@H](CCC(=O)O)NC(=O)CNC(=O)[C@H](Cc1c[nH]cn1)NC(=O)CN)[C@@H](C)O)[C@@H](C)O)C(C)C)C(=O)N[C@@H](CCC(=O)O)C(=O)N[C@@H](Cc1c[nH]c2ccccc12)C(=O)N[C@@H](CC(C)C)C(=O)N[C@@H](CCCCN)C(=O)N[C@@H](C)C(=O)NCC(=O)NCC(=O)N1CCC[C@H]1C(=O)N[C@@H](CO)C(=O)N[C@@H](CO)C(=O)NCC(=O)N[C@@H](C)C(=O)N1CCC[C@H]1C(=O)N1CCC[C@H]1C(=O)N1CCC[C@H]1C(=O)N[C@@H](CO)C(N)=O` [Ab P017] (H-GHGEGTFTSDLSKQLEEEAVRLFIEWLKAGGPSSGAPPPS-NH2), for which the half-maximal effective concentration (EC50) at human GIP receptor is over 10 nM; in experiment [1], over 10 nM; on human GLP-1 receptor, 0.0085 nM.
